Data reported in US20140086839A1, “QUINOLONE ANALOGS FOR TREATING AUTOIMMUNE DISEASES” (Tel HaShomer Medical Research Infrastructure and Services …, priority 2011, published 2014).

Assays:
[1] = XTT cell viability assay of PHA-stimulated mouse splenocytes; assay type: cell-based
Method: FIG. 5 is a histogram depicting the effect of CX-5461 on viability of mouse splenocytes. Mouse splenocytes were plated in DMEM+10% FCS+P/S+Q and 10 μg/ml PHA (250,000 cell/well) in the presence of increased concentrations of CX-5461 (50-4000 nM) for 72 hours. Cells cultured with PHA alone served as controls. Following incubation cell viability was determined by XTT assay;
Cells viability was assessed by the 2,3 bis[2-Methoxy-4-nitro-5-sulfophenyl]-2H-tetrazolium-5-carboxanilide (XTT) as say (Biological Industries, Kibbutz Beit Hemeek, Israel) which measures the reduction of a tetrazolium component (XTT) into soluble formazan product by the mitochondria of viable cells. The intensity of the dye obtained is proportional to the number of metabolic active cells. Mouse splenocytes were plated in presence of PHA ([…]) and elevated concentrations of CX-5461 (50-4000 nM) for 72 hours. Cells plated in absence of CX-5461 served as controls. Following incubation, cell viability was measured by 2,3-bis-(2-methoxy-4-nitro-5-sulfophenyl)-2H-tetrazolium-5-carboxanilide (XTT) assay according to manufacturer's instructions (Biological Industries, Kibbutz Beit Hemeek, Israel). The intensity of the dye obtained is proportional to the number of metabolic active cells.

[2] = test system: MOG-induced EAE; test: MOG-induced EAE, CX-5461 prophylactic treatment initiated at induction phase; assay type: in vivo; details: for Cumulative disease score / Disease onset / Maximal clinical score: 9 days
Method: (§1) EAE was induced in female C57BL/6 mice, 8 weeks of age, by subcutaneous immunization to the flank of emulsion (1:1 ratio volume/volume) containing […] peptide dissolved in phosphate-buffered saline (PBS) (at a concentration 2 mg/ml) and 0.5 mg Mycobacterium Tuberculosis H37Ra (Difco, Detroit, Mich.) in […] incomplete Freund's adjuvant (Sigma, St. Louis, Mo.). Pertussis toxin 200 ng/mouse (dissolved in […] PBS (List Biological Laboratories, Campbell, Calif.) was injected intra-peritoneal on the day of immunization and again two days later. Mice were monitored daily for clinical signs of EAE, scored as follows: 1-flaccid tail; 1.5—hind limb weakness; 2—paralyzed hind limbs and poor righting ability; 2.5—forelimb weakness, paralyzed hind limbs, paralyzed tail; 3—four limbs paralysis, inability to right; 4—quadriplegia; 5.0—moribund or death of the animal after preceding clinical disease. Animal reaching a score of 4 were scarified using CO2. Mice were kept in an SPF (Specific Pathogen Free) environment. Animal breeding and maintenance and all experimental protocols were performed in accordance with the Israeli Council for Animal Care guidelines and all experiments were approved by Sheba IRB Animal Care Ethical Committee.
EAE was induced in female C57Bl/6J female mice (8 weeks old) as described above. Treatment with CX-5461 was initiated on the day of induction and continued till the clinical signs of EAE appeared in the control animal group (In 2 out of the 7 mice clinical signs of EAE appeared). CX-5461 was administered orally to each animal; the following doses of CX-5461 in 0.2 ml of vehicle were used: 12.5 mg/kg (n=6 mice), 25 mg/kg (n=6 mice) and 50 mg/kg (n=7 mice) in 0.2 ml of vehicle. Vehicle treated mice served as controls (n=7 mice). Treatment continued for 9 days post induction, until the first sign of EAE (grade 1) appeared in the vehicle animal group (in 2 out of 7 mice). Mice were monitored daily for clinical signs of EAE up to 42 days post induction.

[3] = XTT cell viability of PHA-stimulated human PBMCs from healthy subjects; assay type: cell-based; details: PHA 20 μg/ml, read-out: maximal effect on viability of human PBMCs (decrease)
Method: FIG. 6 is a histogram depicting the effect of CX-5461 on viability of human PBMCs. Human PBMCs were plated in DMEM+10% FCS+P/S+Q and 20 μg/ml PHA (400,000 cell/well) in the presence of increased concentrations of CX-5461 (50-500 nM) for 72 hours. Cells cultured with PHA alone served as controls. After incubation cell viability was determined by XTT assay;
PBMCs ([…]) from normal, healthy, subjects were plated in the presence of PHA (20 μg/ml) with elevated concentrations of CX-5461 (50-500 nM) for 72 hours. Cells plated in absence of CX-5461 served as controls.

[4] = XTT cell viability assay of neuronal progenitor cells; assay type: cell-based, mice; details: read-out: decrease in NPC cell viability
Method: (§2) FIG. 8 is a histogram depicting the effects of CX-5461 on viability of neuronal progenitor cells (NPCs). Mouse NPCs were plated in neurospheres medium containing basic FGF and EGF at 20 ng/ml each (26,000 cell/well) in the presence of increased concentrations of CX-5461 (20-500 nM) for 72 hours. Cells cultured without CX-5461 served as controls. Following incubation cell viability was determined by XTT assay;
(§3) NPCs derived from the subventricular zone of the lateral ventricle of adult mice were allowed to proliferate in the presence of increased concentrations of CX-5461 (20 nM to 500 nM) for 72 hours, and cell viability was tested using XTT assay.

[5] = test system: neural progenitor cells (NPCs); test: as above; assay type: cell-based, mice; details: 20 nM, 72 hours
Method: as §2, §3

[6] = test system: MOG-induced EAE; test: MOG-induced EAE, CX-5461 treatment initiated at clinical onset; assay type: in vivo
Method: as §1
EAE was induced in mice as described in Example 6, hereinabove.
EAE was induced in female C57/6J female mice as described above. Treatment with CX-5461 was administered orally in 0.2 ml of vehicle with the following concentrations: 12.5 mg/kg/d (n=11 mice) and 25.0 mg/kg/d (n=8 mice). Vehicle treated mice served as controls (n=9 mice). CX-5461 treatment was initiated from the day of disease onset (score 0.5 or 1.0) for the following 14 days. The day of disease onset was evaluated for each animal daily.

[7] = 12.5 mg/kg/day oral from day of EAE induction
[8] = 25.0 mg/kg/day oral from day of EAE induction
[9] = 12.5 mg/kg/day oral from disease onset, 14 days
[10] = 25 mg/kg/day oral from disease onset

Molecule `Cc1cnc(CNC(=O)c2c(=O)c3ccc(N4CCCN(C)CC4)nc3n3c2sc2ccccc23)cn1` [CX-5461, 2-(4-methyl-1,4-diazepan-1-yl)-N-((5-methylpyrazin-2-yl)methyl)-5-oxo-5H-benzo[4,5]thiazolo[3,2-a][1,8]naphthyridine-6-carboxamide] has a cytotoxicity at 72 h, 50 nM ([1]; 50 nM, read-out: decrease in cell viability of splenocyte cells) of 27%, a cytotoxicity at 72 h ([1]; 500 nM and higher concentrations, read-out: decrease in cell viability of splenocyte cells (maximal)) of 97 to 100% and a Cumulative disease score [2, 7] of 16.25 ± 3.94. For the same molecule, the Disease onset [2, 7] was 20.83 ± 1.36 days p.i, the Maximal clinical score [2, 7] was 2.83 ± 0.49 and the Cumulative disease score [2, 8] was 14.1 ± 3.5. For the same molecule, the Disease onset [2, 8] was 23.1 ± 1.2 days p.i, the Maximal clinical score [2, 8] was 3.3 ± 1.0 and the “time to death (toxicity)” value ([2]; 50 mg/kg/day oral, days of treatment post-induction, mean) was 7.6 ± 0.5 days. For the same molecule, the toxic signs ([2]; 50 mg/kg/day oral, since day 5 of treatment) was “change in the color and brightness of their fur, loss of weight and change in behavior”, the “delay of EAE onset versus vehicle-control group” value ([2]; all CX-5461 treated groups, not dependent on concentration) was 10 days and the cytotoxicity at 72 h, 50 nM [3] was 35%. The cytotoxicity at 72 h, 50 nM ([4]; mouse, 50 nM) was 30%, the cytotoxicity at 72 h ([4]; mouse, 100, 250 and 500 nM) was about 50% and the “effect on NPCs viability” value [5] was “no effect”. The Cumulative disease score [6, 9] was 18.59 ± 4.26, the “Maximal EAE score” value [6, 9] was 2 ± 0.47 and the survival [6, 9] was “all the animals survived”. The EAE score [6, 10] was 0.88±0.18, the toxic effects [6, 10] was “change in their fur color and brightness and loss of weight” and the “time to death (toxic effects)” value ([6]; 25 mg/kg/day oral from disease onset, all mice died) was 10.1 ± 0.5 days.
